Like-named read-outs stand apart in the source and are kept apart here. Square brackets hold non-standard residues; d marks the D form. Peptide text beside a SMILES is read from it. hTyr = N[C@@H](CCc1ccc(O)cc1)C(=O)O
Tests used:
[1] = tested on: SARS-CoV-2 clinical isolate SARS-CoV-2/PSL2020 in Calu-3 cells; format: cell-based
Calu-3 cells [2] = tested on: Calu-3 cells
[3] = target: SARS-CoV-2 spike RBD (Fc-tagged 2019-nCoV RBD-SD1) (Severe acute respiratory syndrome coronavirus 2, UniProt P0DTC2); assay: biochemical; format: binding; settings: for kon: read-out: ka, association constant; for koff: read-out: kdis, dissociation constant
Calu-3 cells [4] = settings: 10 μM (150 times the IC50); MTT and annexin-V/PI, 24, 48 or 72 h (Fig. 3f)
[5] = tested on: SARS-CoV-2 clinical isolate SARS-CoV-2/PSL2020 in Vero-E6 cells; settings: for % Inhibition, Moyenne / % Inhibition, Q2 (Median): clinical isolate /PSL2020 in Vero-E6 cells, 48 h, 10 µM; for % Inhibition of SARSCoV-2 replication at 10 μM: mean of at least three independent experiments
Vero-E6 cells [6] = settings: 10 µM
Vero-E6 cells [7] = tested on: Vero-E6 cells
[8] = Helical content by circular dichroism; format: physicochemical; settings: 60 µM peptide, 50 mM sodium phosphate buffer pH 7.4, 25 °C, DichroWeb CDSSTR deconvolution
From the text: The conformation of synthesized peptides in aqueous solution was investigated by circular dichroism (CD) spectroscopy. […] The deconvolution of the CD spectra using DichroWeb[25] allowed us to estimate the helical population for each peptide, which is reported in Table 1. Overall, an excellent agreement was observed between the Agadir-computed values and the experimental helical population inferred from CD data. […] The introduction of a proline residue in peptide P5 has a strong destabilizing effect on helical conformation (17%) whereas Leu/hTyr substitution only led to a slight decrease of the helical content (P7 versus P6 and P10 versus P8).
Fig. 2 Far-UV CD spectra of synthesized peptides. […] CD measurements are reported as molar ellipticity per residue.
CD spectra were recorded on a Jasco J-815 CD spectropolarimeter equipped with a Peltier temperature controller. Data were obtained at 25 °C over a wavelength range between 185 nm and 270 nm, using a wavelength interval of 0.2 nm and a scan rate of 20 nm min^−1. Peptide samples were prepared at a concentration of 60 µM in 50 mM sodium phosphate buffer, pH 7.4, in a quartz cell of 1 mm path length. CD experiments were processed and plotted with R program. CD spectra were analyzed using DICHROWEB web server and CDSSTR deconvolution algorithm.

[9] = tested on: SARS-CoV-2 clinical isolate SARS-CoV-2/PSL2020 in Calu-3 cells; settings: clinical isolate /PSL2020 in Calu-3 cells, 48 h
[10] = HPLC retention time (LC-MS method B); format: physicochemical; settings: method B: X-Select CSH C18 XP, 0.1% formic acid water/acetonitrile, 5-100% B in 3.2 min, 1.8 mL min^−1, 40 °C; used as indicator of hydrophobicity
[11] = BLI EXP1, sample conc. ACE2 10 nM, P8 100 nM, P9 and P10 1000 nM
[12] = BLI EXP2, sample conc. ACE2 100 nM, P8 1000 nM, P9 and P10 1111 nM
[13] = BLI EXP3, sample conc. ACE2 100 nM, P9 10000 nM, P10 1000 nM

Q: Which results are given for `CSCC[C@H](NC(=O)[C@H](Cc1ccccc1)NC(=O)[C@H](CCCCN)NC(=O)[C@H](CC(=O)O)NC(=O)[C@H](CC(C)C)NC(=O)[C@H](Cc1ccccc1)NC(=O)[C@@H](NC(=O)[C@H](CCCCN)NC(=O)[C@H](CCc1ccc(O)cc1)NC(=O)[C@H](CCC(N)=O)NC(=O)[C@H](CCC(=O)O)NC(=O)[C@H](CCC(=O)O)NC(=O)[C@H](CC(C)C)NC(=O)[C@H](C)NC(=O)[C@@H](N)CO)[C@@H](C)O)C(=O)N[C@@H](Cc1c[nH]cn1)C(=O)N[C@@H](CCC(=O)O)C(=O)N[C@@H](CC(C)C)C(=O)N[C@@H](CCC(=O)O)C(=O)N[C@@H](CC(=O)O)C(=O)N[C@@H](CC(C)C)C(=O)N[C@@H](CC(C)C)C(=O)N[C@@H](Cc1ccc(O)cc1)C(=O)N[C@@H](CCC(N)=O)C(=O)N[C@@H](CC(C)C)C(=O)N[C@@H](CO)C(=O)N[C@@H](CC(C)C)C(N)=O` [P9] (H-SALEEQ[hTyr]KTFLDKFMHELEDLLYQLSL-NH2)?
A: SARSCoV-2 virus titer at 1 μM (PFU mL^−1) on Calu-3 [1]: 0 PFU mL^−1; efficacy in reducing SARS-CoV-2 viral titers ([1]; pulmonary cells, 1 µM): 100%; Cell death (AnnV+PI) (Calu-3 cells [2]; EXP1, peptide 10 µM, 24 h (0 µM: 16%)): 21%; Cell death (AnnV+PI) (Calu-3 cells [2]; EXP1, peptide 10 µM, 48 h (0 µM: 18%)): 19%; Cell death (AnnV+PI) (Calu-3 cells [2]; EXP1, peptide 10 µM, 72 h (0 µM: 23%)): 19%; Cell death (AnnV+PI) (Calu-3 cells [2]; EXP2, peptide 10 µM, 24 h (0 µM: 13%)): 16%; Cell death (AnnV+PI) (Calu-3 cells [2]; EXP2, peptide 10 µM, 48 h (0 µM: 17%)): 19%; Cell death (AnnV+PI) (Calu-3 cells [2]; EXP2, peptide 10 µM, 72 h (0 µM: 20%)): 23%; Cell death (AnnV+PI) (Calu-3 cells [2]; EXP3, peptide 10 µM, 24 h (Vehicle: 15%)): 20%; Cell death (AnnV+PI) (Calu-3 cells [2]; EXP3, peptide 10 µM, 48 h (Vehicle: 18%)): 20%; Cell death (AnnV+PI) (Calu-3 cells [2]; EXP3, peptide 10 µM, 72 h (Vehicle: 22%)): 22%; kon [3, 11]: 1020 M⁻¹ s⁻¹; koff [3, 11]: < 1e-07 s⁻¹; kon [3, 12]: 1100 M⁻¹ s⁻¹; koff [3, 12]: < 1e-07 s⁻¹; kon [3, 13]: 254 M⁻¹ s⁻¹; koff [3, 13]: < 1e-07 s⁻¹; Kd ([3]; Table 1 of the earlier manuscript version, quoted by Reviewer #2, superseded): < 1 nM; cytotoxicity in uninfected Calu-3 cells (Calu-3 cells [4]): no cytotoxicity; % Inhibition, Moyenne [5]: 94.5%; % Inhibition, Q2 (Median) [5]: 94.5%; Cell death (AnnV+PI) (Vero-E6 cells [6]; 24 h, EXP1, flow cytometry): 3.3%; Cell death (AnnV+PI) (Vero-E6 cells [6]; 24 h, EXP2, flow cytometry): 4.72%; Cell death (AnnV+PI) (Vero-E6 cells [6]; 24 h, EXP3, flow cytometry): 3.62%; Cell death (AnnV+PI) (Vero-E6 cells [6]; 48 h, EXP1, flow cytometry): 9%; Cell death (AnnV+PI) (Vero-E6 cells [6]; 48 h, EXP2, flow cytometry): 7%; Cell death (AnnV+PI) (Vero-E6 cells [6]; 48 h, EXP3, flow cytometry): 8%; Cell death (AnnV+PI) (Vero-E6 cells [6]; 72 h, EXP1, flow cytometry): 4.4%; Cell death (AnnV+PI) (Vero-E6 cells [6]; 72 h, EXP2, flow cytometry): 2.34%; Cell death (AnnV+PI) (Vero-E6 cells [6]; 72 h, EXP3, flow cytometry): 2.25%; Cell viability (MTT) (Vero-E6 cells [7]; 48 h, 10 µM): 95%; toxicity in Vero-E6 (Vero-E6 cells [7]; MTT 0.1-10 µM and annexin-V/PI 10 µM, 24, 48 or 72 h (Fig. 3c)): devoid of toxicity; Experimental helical content% [8]: 53%; IC50 [9]: 53 nM; RT, HPLC retention time [10]: 2,31 min

Q: For Ac-SALEEQLKTFLDKFLHELEDLLYQLAL-NH2 [P4], which “% Inhibition of SARSCoV-2 replication at 10 μM” value (“% Inhibition … at 10 μM” below) [5] is on record?
A: 24%

Q: And the “% Inhibition, Moyenne” value [5]?
A: 24.0%

Q: What about the “% Inhibition, Q2 (Median)” value [5] of the same compound?
A: 16.9%

Q: What about the Experimental helical content% [8] of the same compound?
A: 70%

Q: And the “RT, HPLC retention time” value [10]?
A: 2,69 min

Q: What does the source list for “H-AHLFSYLTTKEEQDNDAIFLQEFSKES-NH2 [P1scr, reference compound]”?
A: % Inhibition of SARSCoV-2 replication at 10 μM [5]: 7%; % Inhibition, Moyenne [5]: 6.7%; % Inhibition, Q2 (Median) [5]: 6.4%; Experimental helical content% [8]: 8%; RT, HPLC retention time [10]: 1,54 min

Q: For H-SALEEQLKTFLDKFLHELEDLLYQLAL-NH2 [P3], which “% Inhibition … at 10 μM” value [5] is on record?
A: 4%

Q: And the “% Inhibition, Moyenne” value [5]?
A: 3.9%

Q: And the “% Inhibition, Q2 (Median)” value [5]?
A: 3.3%

Q: And the Experimental helical content% [8]?
A: 64%

Q: What about the “RT, HPLC retention time” value [10] of the same compound?
A: 2,53 min

Q: What does the source list for “H-SALEEQLKTFLDKFLHELEDLLYQLALAL-NH2 [P6]”?
A: % Inhibition, Moyenne [5]: 6.5%; % Inhibition, Q2 (Median) [5]: 4.9%; Experimental helical content% [8]: 80%; RT, HPLC retention time [10]: 2,74 min

Q: For H-SALEEQLKTFLDKFLHELEDLLYQLSL-NH2 [P2], which “% Inhibition … at 10 μM” value [5] is on record?
A: 16%

Q: What about the “% Inhibition, Moyenne” value [5] of the same compound?
A: 16.0%

Q: What about the “% Inhibition, Q2 (Median)” value [5] of the same compound?
A: 20.0%

Q: What about the Experimental helical content% [8] of the same compound?
A: 70%

Q: And the “RT, HPLC retention time” value [10]?
A: 1.47 min

Q: For H-SALEEQLKTFLDKFLHELEDPLYQLAL-NH2 [P5], which “% Inhibition … at 10 μM” value [5] is on record?
A: 27%

Q: And the “% Inhibition, Moyenne” value [5]?
A: 26.6%

Q: And the “% Inhibition, Q2 (Median)” value [5]?
A: 20.4%

Q: What about the Experimental helical content% [8] of the same compound?
A: 17%

Q: What about the “RT, HPLC retention time” value [10] of the same compound?
A: 2,16 min

Source: article PMC7881012, “Human ACE2 peptide-mimics block SARS-CoV-2 pulmonary cells infection” (Communications Biology, 2021)
